# Reference: ChEMBL document CHEMBL1155237, “Selective inhibitors of the mutant B-Raf pathway: discovery of a potent and orally bioavailable aminoisoquinoline” (J Med Chem, 2009)
# Assays:
# Parameters in all cases: scale not given: the % may be the effect or the level left
# [1] = molecular target: Mitogen-activated protein kinase 3 (Homo sapiens) (UniProt P27361); assay: Inhibition of ERK1 assessed as enzyme activity at 1 uM relative to untreated control
# [2] = molecular target: Serine/threonine-protein kinase DCLK3 (Homo sapiens) (UniProt Q9C098); assay: Inhibition of DCAMKL3 assessed as enzyme activity at 1 uM relative to untreated control
# Chain of Serine/threonine-protein kinase DCLK3 (Homo sapiens) (Q9C098 whole entry): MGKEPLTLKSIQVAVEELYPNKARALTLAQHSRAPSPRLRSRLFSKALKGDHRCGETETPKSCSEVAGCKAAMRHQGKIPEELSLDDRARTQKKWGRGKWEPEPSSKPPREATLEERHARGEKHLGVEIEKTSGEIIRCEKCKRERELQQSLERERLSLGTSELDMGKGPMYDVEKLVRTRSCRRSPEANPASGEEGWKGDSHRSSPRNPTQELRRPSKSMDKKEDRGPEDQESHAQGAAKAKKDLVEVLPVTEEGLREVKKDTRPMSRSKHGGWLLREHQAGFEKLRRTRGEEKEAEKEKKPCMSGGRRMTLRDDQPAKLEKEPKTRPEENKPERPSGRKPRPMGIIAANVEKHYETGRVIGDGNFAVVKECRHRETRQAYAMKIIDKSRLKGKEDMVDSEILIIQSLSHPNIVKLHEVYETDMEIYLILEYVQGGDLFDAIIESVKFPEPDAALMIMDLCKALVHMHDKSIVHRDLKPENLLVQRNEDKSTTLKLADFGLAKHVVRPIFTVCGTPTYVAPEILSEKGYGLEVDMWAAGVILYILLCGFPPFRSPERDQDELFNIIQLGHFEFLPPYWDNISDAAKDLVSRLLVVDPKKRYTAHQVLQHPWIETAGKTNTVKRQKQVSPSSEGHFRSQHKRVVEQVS
# [3] = molecular target: Serine/threonine-protein kinase pim-2 (Homo sapiens) (UniProt Q9P1W9); assay: Inhibition of PIM2 assessed as enzyme activity at 1 uM relative to untreated control
# [4] = molecular target: Platelet-derived growth factor receptor alpha (Homo sapiens) (UniProt P16234); assay: Inhibition of PDGFRA assessed as enzyme activity at 1 uM relative to untreated control
# [5] = molecular target: MAP/microtubule affinity-regulating kinase 4 (Homo sapiens) (UniProt Q96L34); assay: Inhibition of MARK4 assessed as enzyme activity at 1 uM relative to untreated control
# [6] = molecular target: Myosin light chain kinase family member 4 (Homo sapiens) (UniProt Q86YV6); assay: Inhibition of SgK085 assessed as enzyme activity at 1 uM relative to untreated control
# Chain of Myosin light chain kinase family member 4 (Homo sapiens) (Q86YV6 whole entry): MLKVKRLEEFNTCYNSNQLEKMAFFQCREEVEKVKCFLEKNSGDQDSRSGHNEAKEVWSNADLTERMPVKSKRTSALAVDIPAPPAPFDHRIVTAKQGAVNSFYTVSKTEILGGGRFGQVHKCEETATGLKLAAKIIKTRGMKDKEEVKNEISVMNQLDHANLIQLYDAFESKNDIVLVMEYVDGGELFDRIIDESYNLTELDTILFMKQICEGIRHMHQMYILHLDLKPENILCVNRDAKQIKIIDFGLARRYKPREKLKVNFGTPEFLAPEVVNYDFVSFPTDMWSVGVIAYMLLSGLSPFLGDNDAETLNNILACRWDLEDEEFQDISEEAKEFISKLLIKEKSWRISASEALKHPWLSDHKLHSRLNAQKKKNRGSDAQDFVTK
# [7] = molecular target: Death-associated protein kinase 3 (Homo sapiens) (UniProt O43293); assay: Inhibition of DAPK3 assessed as enzyme activity at 1 uM relative to untreated control
# [8] = molecular target: Mitogen-activated protein kinase 6 (Homo sapiens) (UniProt Q16659); assay: Inhibition of ERK3 assessed as enzyme activity at 1 uM relative to untreated control
# [9] = test system: Epidermal growth factor receptor (Homo sapiens), P00533 [UNDEFINED MUTATION]; assay: Inhibition of EGFR L747-E749del A750P assessed as enzyme activity at 1 uM relative to untreated control; format: protein assay
# [10] = molecular target: Serine/threonine-protein kinase Chk1 (Homo sapiens) (UniProt O14757); assay: Inhibition of CHEK1 assessed as enzyme activity at 1 uM relative to untreated control
# Chain of Serine/threonine-protein kinase Chk1 (Homo sapiens) (O14757 whole entry): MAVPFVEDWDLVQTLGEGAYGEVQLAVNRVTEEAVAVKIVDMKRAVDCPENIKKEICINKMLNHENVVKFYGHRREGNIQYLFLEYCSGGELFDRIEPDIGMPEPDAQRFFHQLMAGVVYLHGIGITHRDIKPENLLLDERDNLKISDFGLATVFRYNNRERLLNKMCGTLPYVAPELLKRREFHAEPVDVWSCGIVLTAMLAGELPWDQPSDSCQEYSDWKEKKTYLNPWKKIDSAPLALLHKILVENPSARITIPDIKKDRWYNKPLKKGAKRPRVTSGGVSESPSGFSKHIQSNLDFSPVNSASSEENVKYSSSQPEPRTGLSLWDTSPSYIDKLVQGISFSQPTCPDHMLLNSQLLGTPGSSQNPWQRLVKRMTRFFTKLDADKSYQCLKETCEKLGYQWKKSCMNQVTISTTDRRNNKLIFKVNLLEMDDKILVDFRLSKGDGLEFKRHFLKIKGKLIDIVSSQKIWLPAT
# [11] = molecular target: Vascular endothelial growth factor receptor 3 (Homo sapiens) (UniProt P35916); assay: Inhibition of FLT4 assessed as enzyme activity at 1 uM relative to untreated control
# [12] = Inhibition of FLT3 ITD assessed as enzyme activity at 1 uM relative to untreated control
# [13] = molecular target: LIM domain kinase 2 (Homo sapiens) (UniProt P53671); assay: Inhibition of LIMK2 assessed as enzyme activity at 1 uM relative to untreated control
# [14] = molecular target: Activin receptor type-2A (Homo sapiens) (UniProt P27037); assay: Inhibition of ACVR2A assessed as enzyme activity at 1 uM relative to untreated control
# Chain of Activin receptor type-2A (Homo sapiens) (P27037 whole entry): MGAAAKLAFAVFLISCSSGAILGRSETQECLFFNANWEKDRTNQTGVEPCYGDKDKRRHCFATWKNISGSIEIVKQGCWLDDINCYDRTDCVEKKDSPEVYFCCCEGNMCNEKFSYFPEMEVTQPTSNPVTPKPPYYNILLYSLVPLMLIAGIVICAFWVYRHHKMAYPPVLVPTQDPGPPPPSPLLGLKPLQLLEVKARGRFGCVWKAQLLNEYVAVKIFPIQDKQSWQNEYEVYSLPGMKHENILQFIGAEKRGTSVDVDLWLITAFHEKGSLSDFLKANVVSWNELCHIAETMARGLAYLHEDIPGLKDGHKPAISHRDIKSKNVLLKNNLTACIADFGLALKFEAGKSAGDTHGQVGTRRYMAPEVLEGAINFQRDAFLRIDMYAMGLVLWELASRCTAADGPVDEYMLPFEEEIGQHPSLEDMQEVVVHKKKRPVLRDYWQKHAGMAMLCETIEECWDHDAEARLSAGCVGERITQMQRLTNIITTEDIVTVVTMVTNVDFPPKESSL
# [15] = molecular target: Inhibitor of nuclear factor kappa-B kinase subunit alpha (Homo sapiens) (UniProt O15111); assay: Inhibition of IKK-alpha assessed as enzyme activity at 1 uM relative to untreated control
# [16] = molecular target: Serine/threonine-protein kinase Nek9 (Homo sapiens) (UniProt Q8TD19); assay: Inhibition of NEK9 assessed as enzyme activity at 1 uM relative to untreated control
# [17] = test system: Tyrosine-protein kinase ABL1 (Homo sapiens), P00519 [Y253F]; assay: Inhibition of ABL1 Y253F mutant assessed as enzyme activity at 1 uM relative to untreated control
# [18] = molecular target: Mitogen-activated protein kinase kinase kinase 4 (Homo sapiens) (UniProt Q9Y6R4); assay: Inhibition of MAP3K4 assessed as enzyme activity at 1 uM relative to untreated control
# [19] = molecular target: Serine/threonine-protein kinase RIO1 (Homo sapiens) (UniProt Q9BRS2); assay: Inhibition of RIOK1 assessed as enzyme activity at 1 uM relative to untreated control
# Chain of Serine/threonine-protein kinase RIO1 (Homo sapiens) (Q9BRS2 whole entry): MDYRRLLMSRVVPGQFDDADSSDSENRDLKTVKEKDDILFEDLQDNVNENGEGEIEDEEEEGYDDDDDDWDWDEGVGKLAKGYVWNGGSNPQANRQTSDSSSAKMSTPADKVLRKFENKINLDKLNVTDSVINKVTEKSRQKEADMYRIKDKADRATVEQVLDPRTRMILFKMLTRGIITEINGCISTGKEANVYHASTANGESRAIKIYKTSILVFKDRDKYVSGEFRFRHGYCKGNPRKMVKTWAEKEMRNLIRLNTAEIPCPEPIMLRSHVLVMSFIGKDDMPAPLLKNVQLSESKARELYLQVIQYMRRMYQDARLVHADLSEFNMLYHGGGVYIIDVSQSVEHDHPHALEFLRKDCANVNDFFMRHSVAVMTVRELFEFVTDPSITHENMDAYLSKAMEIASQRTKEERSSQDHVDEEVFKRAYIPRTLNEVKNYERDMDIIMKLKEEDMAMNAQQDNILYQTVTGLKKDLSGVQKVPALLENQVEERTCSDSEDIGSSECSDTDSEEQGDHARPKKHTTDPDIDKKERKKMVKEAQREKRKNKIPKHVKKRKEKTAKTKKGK
# [20] = molecular target: Serine/threonine-protein kinase Nek5 (Homo sapiens) (UniProt Q6P3R8); assay: Inhibition of NEK5 assessed as enzyme activity at 1 uM relative to untreated control
# [21] = molecular target: Casein kinase II subunit alpha' (Homo sapiens) (UniProt P19784); assay: Inhibition of CSNK2A2 assessed as enzyme activity at 1 uM relative to untreated control
# Chain of Casein kinase II subunit alpha' (Homo sapiens) (P19784 whole entry, looked up): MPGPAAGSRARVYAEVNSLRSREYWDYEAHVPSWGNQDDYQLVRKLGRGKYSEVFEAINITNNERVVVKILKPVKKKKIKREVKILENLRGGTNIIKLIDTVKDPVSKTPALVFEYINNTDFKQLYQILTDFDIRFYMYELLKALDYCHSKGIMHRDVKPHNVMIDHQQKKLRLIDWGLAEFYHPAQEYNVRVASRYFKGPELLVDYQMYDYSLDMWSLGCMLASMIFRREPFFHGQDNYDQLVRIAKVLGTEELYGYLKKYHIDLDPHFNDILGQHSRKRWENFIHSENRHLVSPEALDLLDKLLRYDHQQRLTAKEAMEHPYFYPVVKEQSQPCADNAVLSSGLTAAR
# [22] = molecular target: Aurora kinase A (Homo sapiens) (UniProt O14965); assay: Inhibition of AURKA assessed as enzyme activity at 1 uM relative to untreated control
# [23] = molecular target: Aurora kinase C (Homo sapiens) (UniProt Q9UQB9); assay: Inhibition of AURKC assessed as enzyme activity at 1 uM relative to untreated control
# Chain of Aurora kinase C (Homo sapiens) (Q9UQB9 whole entry): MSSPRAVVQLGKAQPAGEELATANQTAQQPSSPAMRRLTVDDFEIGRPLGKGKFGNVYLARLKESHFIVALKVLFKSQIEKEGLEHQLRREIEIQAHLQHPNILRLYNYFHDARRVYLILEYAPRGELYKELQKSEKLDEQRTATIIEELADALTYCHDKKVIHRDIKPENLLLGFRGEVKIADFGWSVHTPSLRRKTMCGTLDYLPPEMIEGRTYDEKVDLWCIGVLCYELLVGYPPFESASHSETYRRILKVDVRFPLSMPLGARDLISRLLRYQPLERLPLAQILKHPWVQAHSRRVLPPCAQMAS
# [24] = molecular target: Protein kinase C eta type (Homo sapiens) (UniProt P24723); assay: Inhibition of PRKCH assessed as enzyme activity at 1 uM relative to untreated control
# [25] = molecular target: Tyrosine-protein kinase Fgr (Homo sapiens) (UniProt P09769); assay: Inhibition of FGR assessed as enzyme activity at 1 uM relative to untreated control
# [26] = molecular target: Mitogen-activated protein kinase 9 (Homo sapiens) (UniProt P45984); assay: Inhibition of JNK2 assessed as enzyme activity at 1 uM relative to untreated control
# [27] = molecular target: Protein-tyrosine kinase 6 (Homo sapiens) (UniProt Q13882); assay: Inhibition of PTK6 assessed as enzyme activity at 1 uM relative to untreated control
# Chain of Protein-tyrosine kinase 6 (Homo sapiens) (Q13882 whole entry, looked up): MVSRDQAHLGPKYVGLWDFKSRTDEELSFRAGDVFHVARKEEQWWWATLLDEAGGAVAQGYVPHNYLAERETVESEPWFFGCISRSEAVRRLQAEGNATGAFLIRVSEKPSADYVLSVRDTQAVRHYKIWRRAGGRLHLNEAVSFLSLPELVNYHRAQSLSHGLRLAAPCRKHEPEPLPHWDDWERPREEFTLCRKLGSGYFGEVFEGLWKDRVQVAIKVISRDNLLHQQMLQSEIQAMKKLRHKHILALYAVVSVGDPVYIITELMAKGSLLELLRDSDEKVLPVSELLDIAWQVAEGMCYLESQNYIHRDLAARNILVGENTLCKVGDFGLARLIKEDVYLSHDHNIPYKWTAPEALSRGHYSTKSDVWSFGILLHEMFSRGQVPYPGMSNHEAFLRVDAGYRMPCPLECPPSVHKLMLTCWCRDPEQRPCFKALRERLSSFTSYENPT
# [28] = molecular target: Serine/threonine-protein kinase 32B (Homo sapiens) (UniProt Q9NY57); assay: Inhibition of YANK2 assessed as enzyme activity at 1 uM relative to untreated control
# [29] = molecular target: Ribosomal protein S6 kinase alpha-1 (Homo sapiens) (UniProt Q15418); assay: Inhibition of RPS6KA1 kinase domain 2 assessed as enzyme activity at 1 uM relative to untreated control
# [30] = molecular target: Discoidin domain-containing receptor 2 (Homo sapiens) (UniProt Q16832); assay: Inhibition of DDR2 assessed as enzyme activity at 1 uM relative to untreated control
# [31] = molecular target: Proto-oncogene tyrosine-protein kinase receptor Ret (Homo sapiens) (UniProt P07949); assay: Inhibition of RET assessed as enzyme activity at 1 uM relative to untreated control
# [32] = molecular target: Macrophage colony-stimulating factor 1 receptor (Homo sapiens) (UniProt P07333); assay: Inhibition of CSF1R assessed as enzyme activity at 1 uM relative to untreated control
# [33] = molecular target: Serine/threonine-protein kinase TAO1 (Homo sapiens) (UniProt Q7L7X3); assay: Inhibition of TAOK1 assessed as enzyme activity at 1 uM relative to untreated control
# [34] = molecular target: Serine/threonine-protein kinase BRSK2 (Homo sapiens) (UniProt Q8IWQ3); assay: Inhibition of BRSK2 assessed as enzyme activity at 1 uM relative to untreated control
# [35] = molecular target: Mitogen-activated protein kinase 1 (Homo sapiens) (UniProt P28482); assay: Inhibition of ERK2 assessed as enzyme activity at 1 uM relative to untreated control
# Chain of Mitogen-activated protein kinase 1 (Homo sapiens) (P28482 whole entry): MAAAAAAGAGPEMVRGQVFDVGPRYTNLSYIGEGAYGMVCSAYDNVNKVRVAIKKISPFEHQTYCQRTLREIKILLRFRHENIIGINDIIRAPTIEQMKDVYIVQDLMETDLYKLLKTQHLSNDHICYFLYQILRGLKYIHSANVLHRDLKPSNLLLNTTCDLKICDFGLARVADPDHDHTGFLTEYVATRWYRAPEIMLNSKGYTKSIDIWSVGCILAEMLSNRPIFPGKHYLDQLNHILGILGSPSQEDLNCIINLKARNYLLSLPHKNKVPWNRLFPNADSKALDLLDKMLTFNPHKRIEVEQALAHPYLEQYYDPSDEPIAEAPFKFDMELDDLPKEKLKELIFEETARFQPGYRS
# [36] = molecular target: Tyrosine-protein kinase receptor UFO (Homo sapiens) (UniProt P30530); assay: Inhibition of AXL assessed as enzyme activity at 1 uM relative to untreated control
# Chain of Tyrosine-protein kinase receptor UFO (Homo sapiens) (P30530 whole entry): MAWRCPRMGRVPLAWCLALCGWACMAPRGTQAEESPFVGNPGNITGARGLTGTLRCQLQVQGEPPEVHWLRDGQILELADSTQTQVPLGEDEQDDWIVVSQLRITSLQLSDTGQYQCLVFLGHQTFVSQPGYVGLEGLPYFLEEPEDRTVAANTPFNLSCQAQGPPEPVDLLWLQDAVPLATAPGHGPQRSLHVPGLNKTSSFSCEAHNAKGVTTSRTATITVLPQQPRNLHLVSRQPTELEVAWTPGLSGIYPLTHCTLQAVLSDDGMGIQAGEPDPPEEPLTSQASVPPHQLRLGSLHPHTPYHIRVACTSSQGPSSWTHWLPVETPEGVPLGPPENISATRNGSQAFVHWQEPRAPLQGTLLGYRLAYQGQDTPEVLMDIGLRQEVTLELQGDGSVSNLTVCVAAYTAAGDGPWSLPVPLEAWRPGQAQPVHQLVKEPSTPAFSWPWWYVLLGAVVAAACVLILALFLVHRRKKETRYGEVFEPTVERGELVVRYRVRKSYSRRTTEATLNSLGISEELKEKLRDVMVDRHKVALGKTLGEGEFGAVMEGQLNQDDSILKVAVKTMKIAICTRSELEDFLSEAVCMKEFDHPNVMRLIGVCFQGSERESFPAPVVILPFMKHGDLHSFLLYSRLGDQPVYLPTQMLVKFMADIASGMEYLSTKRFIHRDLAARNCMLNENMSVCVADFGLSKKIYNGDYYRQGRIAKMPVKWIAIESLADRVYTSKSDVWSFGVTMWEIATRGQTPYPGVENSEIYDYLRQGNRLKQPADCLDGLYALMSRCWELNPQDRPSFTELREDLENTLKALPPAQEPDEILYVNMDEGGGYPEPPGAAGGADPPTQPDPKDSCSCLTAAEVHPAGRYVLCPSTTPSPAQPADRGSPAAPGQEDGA
# [37] = test system: Tyrosine-protein kinase ABL1 (Homo sapiens), P00519 [F317L]; assay: Inhibition of ABL1 F317L mutant assessed as enzyme activity at 1 uM relative to untreated control
# [38] = molecular target: Cyclin-dependent kinase 18 (Homo sapiens) (UniProt Q07002); assay: Inhibition of PCTK3 assessed as enzyme activity at 1 uM relative to untreated control
smiles,measurement,setting,value
Cc1ccc2c(Nc3ccc(Cl)cc3)nccc2c1Nc1ncccc1-c1ncnc2[nH]cnc12.Cl.Cl.Cl,Activity,[1],100%
same,Activity,[2],100%
same,Activity,[3],100%
same,Activity,[4],88%
same,Activity,[5],100%
same,Activity,[6],100%
same,Activity,[7],100%
same,Activity,[8],98%
same,Activity,[9],89%
same,Activity,[10],100%
same,Activity,[11],96%
same,Activity,[12],92%
same,Activity,[13],98%
same,Activity,[14],100%
same,Activity,[15],100%
same,Activity,[16],89%
same,Activity,[17],61%
same,Activity,[18],100%
same,Activity,[19],92%
same,Activity,[20],98%
same,Activity,[21],100%
same,Activity,[22],100%
same,Activity,[23],86%
same,Activity,[24],100%
same,Activity,[25],100%
same,Activity,[26],86%
same,Activity,[27],13%
same,Activity,[28],95%
same,Activity,[29],96%
same,Activity,[30],6.6%
same,Activity,[31],65%
same,Activity,[32],0.25%
same,Activity,[33],88%
same,Activity,[34],87%
same,Activity,[35],100%
same,Activity,[36],95%
same,Activity,[37],79%
same,Activity,[38],95%
